Like-named read-outs stand apart in the source and are kept apart here.
Columns and labels:
K-562 = assay: SRB 48 h growth assay, Leukemia K-562; type: cell-based, human
SK-MEL-5 = assay: SRB 48 h growth assay, Melanoma SK-MEL-5; type: cell-based, human; settings: SK-MEL-5, Melanoma
NCI-H522 = assay: SRB 48 h growth assay, Non-small Cell Lung NCI-H522; type: cell-based, human
A549/ATCC = assay: SRB 48 h growth assay, Non-small Cell Lung A549/ATCC; type: cell-based, human
SNB-75 = assay: SRB 48 h growth assay, CNS SNB-75; type: cell-based, human; settings: SNB-75, CNS
HOP-92 = assay: SRB 48 h growth assay, Non-small Cell Lung HOP-92; type: cell-based, human; settings: HOP-92, Non-small Cell Lung
UACC-257 = assay: SRB 48 h growth assay, Melanoma UACC-257; type: cell-based, human; settings: UACC-257, Melanoma
MDA-MB-468 = assay: SRB 48 h growth assay, Breast MDA-MB-468; type: cell-based, human; settings: MDA-MB-468, Breast
[1] = in vitro anticancer activity, melanoma panel; type: cell-based; settings: Homo sapiens; nine melanoma cell lines, exposure at least 48 h; read-out: GI50, range over panel
[2] = test system: six breast cancer cell line (MCF-7, MDA-MB-231/ATCC, HS 578T, TD-47D, MDA-MB-468 and BT-549); assay: in vitro anticancer activity, breast panel; type: cell-based; settings: Homo sapiens; six breast cancer cell lines, exposure at least 48 h; read-out: GI50, range over panel
TK-10 = assay: SRB 48 h growth assay, Renal TK-10; type: cell-based, human; settings: TK-10, Renal
SNB-19 = assay: SRB 48 h growth assay, CNS SNB-19; type: cell-based, human; settings: SNB-19, CNS
ACHN = assay: SRB 48 h growth assay, Renal ACHN; type: cell-based, human
NCI-H226 = assay: SRB 48 h growth assay, Non-small Cell Lung NCI-H226; type: cell-based, human; settings: for GI50: Homo sapiens
[3] = test system: six leukemia cancer cell lines (CCRF-CEM, HL-60, K-562, MOLT-4, SR and RPMI-8226); assay: in vitro anticancer activity, leukemia panel; type: cell-based; settings: Homo sapiens, exposure at least 48 h, read-out: GI50, range over panel
BT-549 = assay: SRB 48 h growth assay, Breast BT-549; type: cell-based, human; settings: BT-549, Breast
CCRF-CEM = assay: SRB 48 h growth assay, Leukemia CCRF-CEM; type: cell-based, human
RXF393 = assay: SRB 48 h growth assay, Renal RXF393; type: cell-based, human
[4] = test system: six CNS cancer cell line (SF-268, SF-295, SF-539, SNB-19, SNB-75 and U251); assay: in vitro anticancer activity, CNS panel; type: cell-based; settings: Homo sapiens; six CNS cancer cell lines, exposure at least 48 h; read-out: GI50, range over panel
[5] = test system: seven ovarian cancer cell lines (IGROV1, OVCAR-3, OVCAR-4, OVCAR-5, OVCAR-8, NCI/ADR-RES and SK-OV-3); assay: in vitro anticancer activity, ovarian panel; type: cell-based; settings: Homo sapiens, exposure at least 48 h, read-out: GI50, range over panel
SW-620 = assay: SRB 48 h growth assay, Colon SW-620; type: cell-based, human; settings: SW-620, Colon
OVCAR-8 = assay: SRB 48 h growth assay, Ovarian OVCAR-8; type: cell-based, human; settings: OVCAR-8, Ovarian
MDA-MB-435 = assay: SRB 48 h growth assay, Melanoma MDA-MB-435; type: cell-based, human; settings: MDA-MB-435, Melanoma
DU-145 = assay: SRB 48 h growth assay, Prostate DU-145; type: cell-based, human; settings: DU-145, Prostate
PC-3 = assay: SRB 48 h growth assay, Prostate PC-3; type: cell-based, human; settings: PC-3, Prostate
HS578T = assay: SRB 48 h growth assay, Breast HS578T; type: cell-based, human
[6] = Homo sapiens, read-out: Growth Inhibition GI50
[7] = Homo sapiens, read-out: Log10 GI50 (converted)
[8] = Homo sapiens, read-out: Log10 LC50 (converted)

**Q.** Which GI50 (K-562; Homo sapiens, K562, K-562, Leukemia, read-out: Growth Inhibition GI50) does the source give for `C#Cc1ccc(-n2c(/C=C/c3cc(OC)c(OC)c(OC)c3)nc3ncccc3c2=O)cc1` [4q, (E)-3-(4-Ethynylphenyl)-2-(3,4,5-trimethoxystyryl)pyrido[2,3-d]pyrimidin-4(3H)-one] here?
**A.** 3.83 µM

**Q.** What about the GI50 (K-562; Homo sapiens, K562, K-562, Leukemia, read-out: Log10 GI50 (converted)) of the same compound?
**A.** 3.8 µM

**Q.** And the CC50 (K-562; Homo sapiens, K562, K-562, Leukemia, read-out: Log10 LC50 (converted))?
**A.** > 100 µM

**Q.** What about the “Log10 TGI50” value (K-562; K-562, Leukemia) of the same compound?
**A.** >−4.00

**Q.** What about the GI50 (SK-MEL-5; [6]) of the same compound?
**A.** 1780 nM

**Q.** What about the GI50 (SK-MEL-5; [7]) of the same compound?
**A.** 1780 nM

**Q.** And the CC50 (SK-MEL-5; [8])?
**A.** 18.2 µM

**Q.** And the “Log10 TGI50” value (SK-MEL-5)?
**A.** −5.36

**Q.** And the “Log10 TGI50” value (NCI-H522)?
**A.** −5.20

**Q.** What about the GI50 (NCI-H522; [6]) of the same compound?
**A.** 2330 nM

**Q.** What about the GI50 (NCI-H522; [7]) of the same compound?
**A.** 2340 nM

**Q.** What about the CC50 (NCI-H522; [8]) of the same compound?
**A.** 66.1 µM

**Q.** What about the “Log10 TGI50” value (A549/ATCC) of the same compound?
**A.** >−4.00

**Q.** What about the GI50 (A549/ATCC; [6]) of the same compound?
**A.** 5.65 µM

**Q.** And the GI50 (A549/ATCC; [7])?
**A.** 5.62 µM

**Q.** What about the CC50 (A549/ATCC; [8]) of the same compound?
**A.** > 100 µM

**Q.** What about the GI50 (SNB-75; [6]) of the same compound?
**A.** 3.88 µM

**Q.** And the GI50 (SNB-75; [7])?
**A.** 3.89 µM

**Q.** What about the CC50 (SNB-75; [8]) of the same compound?
**A.** > 100 µM

**Q.** What about the “Log10 TGI50” value (SNB-75) of the same compound?
**A.** >−4.00

**Q.** And the “Log10 TGI50” value (HOP-92)?
**A.** −5.11

**Q.** And the GI50 (HOP-92; [6])?
**A.** 2310 nM

**Q.** And the GI50 (HOP-92; [7])?
**A.** 2290 nM

**Q.** And the CC50 (HOP-92; [8])?
**A.** > 100 µM

**Q.** And the GI50 (UACC-257; [6])?
**A.** 9.74 µM

**Q.** And the GI50 (UACC-257; [7])?
**A.** 9.77 µM

**Q.** What about the CC50 (UACC-257; [8]) of the same compound?
**A.** > 100 µM

**Q.** And the “Log10 TGI50” value (UACC-257)?
**A.** >−4.00

**Q.** What about the GI50 (MDA-MB-468; [6]) of the same compound?
**A.** 2830 nM

**Q.** And the GI50 (MDA-MB-468; [7])?
**A.** 2820 nM

**Q.** What about the CC50 (MDA-MB-468; [8]) of the same compound?
**A.** > 100 µM

**Q.** What about the “Log10 TGI50” value (MDA-MB-468) of the same compound?
**A.** >−4.00

**Q.** What about the GI50 [1] of the same compound?
**A.** 1490 to 2270 nM

**Q.** And the GI50 [2]?
**A.** 1510 to 3460 nM

**Q.** And the GI50 (TK-10; [6])?
**A.** 17.3 µM

**Q.** And the GI50 (TK-10; [7])?
**A.** 17.4 µM

**Q.** And the CC50 (TK-10; [8])?
**A.** > 100 µM

**Q.** What about the “Log10 TGI50” value (TK-10) of the same compound?
**A.** −4.20

**Q.** And the GI50 (SNB-19; [6])?
**A.** 16.2 µM

**Q.** And the GI50 (SNB-19; [7])?
**A.** 16.2 µM

**Q.** And the CC50 (SNB-19; [8])?
**A.** > 100 µM

**Q.** What about the “Log10 TGI50” value (SNB-19) of the same compound?
**A.** >−4.00

**Q.** And the “Log10 TGI50” value (ACHN)?
**A.** >−4.00

**Q.** And the GI50 (ACHN; [6])?
**A.** 6.63 µM

**Q.** And the GI50 (ACHN; [7])?
**A.** 6.61 µM

**Q.** What about the CC50 (ACHN; [8]) of the same compound?
**A.** > 100 µM

**Q.** And the “Log10 TGI50” value (NCI-H226)?
**A.** >−4.00

**Q.** And the GI50 (NCI-H226; read-out: Growth Inhibition GI50)?
**A.** 12.9 µM

**Q.** And the GI50 (NCI-H226; read-out: Log10 GI50 (converted))?
**A.** 12.9 µM

**Q.** And the GI50 [3]?
**A.** 1390 to 3010 nM

**Q.** What about the “Log10 TGI50” value (BT-549) of the same compound?
**A.** −5.00

**Q.** And the GI50 (BT-549; [6])?
**A.** 2.99 µM

**Q.** What about the GI50 (BT-549; [7]) of the same compound?
**A.** 3.02 µM

**Q.** And the CC50 (BT-549; [8])?
**A.** > 100 µM

**Q.** What about the “Log10 TGI50” value (CCRF-CEM) of the same compound?
**A.** >−4.00

**Q.** What about the CC50 (CCRF-CEM; Homo sapiens, CCKF-CEM, read-out: Log10 LC50 (converted)) of the same compound?
**A.** > 100 µM

**Q.** What about the GI50 (CCRF-CEM; [6]) of the same compound?
**A.** 4.9 µM

**Q.** What about the GI50 (CCRF-CEM; [7]) of the same compound?
**A.** 4.9 µM

**Q.** And the “Log10 TGI50” value (RXF393)?
**A.** >−4.00

**Q.** What about the GI50 (RXF393; Homo sapiens, RXF 393, read-out: Growth Inhibition GI50) of the same compound?
**A.** 7.04 µM

**Q.** What about the GI50 (RXF393; Homo sapiens, RXF 393, read-out: Log10 GI50 (converted)) of the same compound?
**A.** 7.08 µM

**Q.** What about the CC50 (RXF393; Homo sapiens, RXF 393, read-out: Log10 LC50 (converted)) of the same compound?
**A.** > 100 µM

**Q.** And the GI50 [4]?
**A.** 1670 to 2270 nM

**Q.** And the GI50 [5]?
**A.** 1670 to 3610 nM

**Q.** And the GI50 (SW-620; [6])?
**A.** 3.29 µM

**Q.** And the GI50 (SW-620; [7])?
**A.** 3.31 µM

**Q.** And the CC50 (SW-620; [8])?
**A.** > 100 µM

**Q.** What about the “Log10 TGI50” value (SW-620) of the same compound?
**A.** −4.30

**Q.** What about the GI50 (OVCAR-8; [6]) of the same compound?
**A.** 9.67 µM

**Q.** What about the GI50 (OVCAR-8; [7]) of the same compound?
**A.** 9.77 µM

**Q.** And the CC50 (OVCAR-8; [8])?
**A.** > 100 µM

**Q.** And the “Log10 TGI50” value (OVCAR-8)?
**A.** >−4.00

**Q.** What about the GI50 (MDA-MB-435; [6]) of the same compound?
**A.** 1980 nM

**Q.** And the GI50 (MDA-MB-435; [7])?
**A.** 2000 nM

**Q.** And the CC50 (MDA-MB-435; [8])?
**A.** 97.7 µM

**Q.** And the “Log10 TGI50” value (MDA-MB-435)?
**A.** −5.27

**Q.** What about the “Log10 TGI50” value (DU-145) of the same compound?
**A.** >−4.00

**Q.** And the GI50 (DU-145; [6])?
**A.** 5.36 µM

**Q.** And the GI50 (DU-145; [7])?
**A.** 5.37 µM

**Q.** And the CC50 (DU-145; [8])?
**A.** > 100 µM

**Q.** And the GI50 (PC-3; [6])?
**A.** 3.96 µM

**Q.** What about the GI50 (PC-3; [7]) of the same compound?
**A.** 3.98 µM

**Q.** And the CC50 (PC-3; [8])?
**A.** > 100 µM

**Q.** And the “Log10 TGI50” value (PC-3)?
**A.** >−4.00

**Q.** What about the “Log10 TGI50” value (HS578T) of the same compound?
**A.** −4.64

**Q.** And the GI50 (HS578T; Homo sapiens, Hs-578T, read-out: Growth Inhibition GI50)?
**A.** 3.67 µM

**Q.** What about the GI50 (HS578T; Homo sapiens, Hs-578T, read-out: Log10 GI50 (converted)) of the same compound?
**A.** 3.63 µM

**Q.** And the CC50 (HS578T; Homo sapiens, Hs-578T, read-out: Log10 LC50 (converted))?
**A.** > 100 µM

From US9783537B2, “3-(4-ethylnylphenyl) pyridopyrimidinone compounds and process for preparation thereof useful as potential anticancer agents” (Council of Scientific & Industrial Research, priority 2013, dated 2017)
